Results: patent US9540343B2 (Gilead Sciences, Inc., priority 2011, dated 2017)

How the values were obtained:
[1] = in vitro; details: human, uninfected MT-4 cells, CC50 (nM), same protocol as Test A, CellTiter-Glo
How it was run: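 Cytoprotection read-out: CellTiter-Glo chemiluminescence after 5 days at 37 °C of HIV-IIIb-infected MT-4 cells (m.o.i. 0.003) with compound in 10-point 3-fold dilutions, quadruplicate, 10% FBS. Cytotoxicity (CC50) measured identically without virus.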

[2] = tested on: HIV-IIIb; experiment: Test A: Antiviral assay in MT4 cells; assay type: cell-based, HIV-1; details: Human immunodeficiency virus 1, IIIB, MT4, 120 h, read-out: % inhibition at 2 μM, percent inhibition of virus-induced cell killing, from dose response curve at 2 uM drug; MT-4 cells infected with HIV-IIIb, 5 days, CellTiter-Glo

Row | SMILES | CC50 at 5 days [1] [nM] | inhibition at 2 µM [2] [%]
1 | NC(=O)c1cc(-c2cccnc2[C@H](Cc2cc(F)cc(F)c2)NC(=O)Cn2cc(C3=CCCC3)c(C(F)(F)F)n2)ccc1F [Example 355, (S)-5-(2-(1-(2-(4-cyclopentenyl-3-(trifluoromethyl)-1H-pyrazol-1-yl)acetamido)-2-(3,5-difluorophenyl)ethyl)pyridin-3-yl)-2-fluorobenzamide] | 9460 | 1
2 | CC1(O)CCCc2c(C(F)(F)F)nn(CC(=O)N[C@@H](Cc3cc(F)cc(F)c3)c3ncccc3-c3ccc(F)c(C(N)=O)c3)c21 (stereo partly drawn) [Example 356, 5-(2-((1S)-2-(3,5-difluorophenyl)-1-(2-(7-hydroxy-7-methyl-3-(trifluoromethyl)-4,5,6,7-tetrahydro-1H-indazol-1-yl)acetamido)ethyl)pyridin-3-yl)-2-fluorobenzamide] | 20600 | 76
3 | CC(C)(C)C#Cc1cn(CC(=O)N[C@@H](Cc2cc(F)cc(F)c2)c2ncccc2-c2ccc(F)c(C(N)=O)c2)nc1C(F)(F)F [Example 357, (S)-5-(2-(2-(3,5-difluorophenyl)-1-(2-(4-(3,3-dimethylbut-1-ynyl)-3-(trifluoromethyl)-1H-pyrazol-1-yl)acetamido)ethyl)pyridin-3-yl)-2-fluorobenzamide] | 8820 | 0
4 | NC(=O)c1cccc(-c2cccnc2[C@H](Cc2cc(F)cc(F)c2)NC(=O)Cn2c(C(F)F)nc3ccccc32)c1 [Example 358, (S)-3-(2-(1-(2-(2-(difluoromethyl)-1H-benzo[d]imidazol-1-yl)acetamido)-2-(3,5-difluorophenyl)ethyl)pyridin-3-yl)benzamide] | 47400 | 20
5 | N#Cc1nn(CC(=O)N[C@@H](Cc2cc(F)cc(F)c2)c2ncccc2-c2ccc(F)c(C(N)=O)c2)cc1Br [Example 359, (S)-5-(2-(1-(2-(4-bromo-3-cyano-1H-pyrazol-1-yl)acetamido)-2-(3,5-difluorophenyl)ethyl)pyridin-3-yl)-2-fluorobenzamide] | 25300 | 2
6 | COc1nc2c(CC(=O)N[C@@H](Cc3cc(F)cc(F)c3)c3ncccc3-c3cccc(C(N)=O)c3)c[nH]c2cc1C [Example 360E, (S)-3-(2-(2-(3,5-difluorophenyl)-1-(2-(5-methoxy-6-methyl-1H-pyrrolo[3,2-b]pyridin-3-yl)acetamido)ethyl)pyridin-3-yl)benzamide] | 13100 | 55
7 | COCc1cn(CC(=O)N[C@@H](Cc2cc(F)cc(F)c2)c2ncccc2-c2ccc(F)c(C(N)=O)c2)nc1C(F)(F)F [Example 361, (S)-5-(2-(2-(3,5-difluorophenyl)-1-(2-(4-(methoxymethyl)-3-(trifluoromethyl)-1H-pyrazol-1-yl)acetamido)ethyl)pyridin-3-yl)-2-fluorobenzamide] | > 53200 | 8
8 | Cc1cc(=O)n(CC(=O)N[C@@H](Cc2cc(F)cc(F)c2)c2ncccc2-c2ccnc(C(N)=O)c2)c2ccccc12 [Example 362, (S)-2-(2-(3,5-difluorophenyl)-1-(2-(4-methyl-2-oxoquinolin-1(2H)-yl)acetamido)ethyl)-3,4′-bipyridine-2′-carboxamide] | > 53000 | 23
9 | N#Cc1cn(CC(=O)N[C@@H](Cc2cc(F)cc(F)c2)c2ncccc2-c2ccc(F)c(C(N)=O)c2)nc1C(F)(F)F [Example 363, (S)-5-(2-(1-(2-(4-cyano-3-(trifluoromethyl)-1H-pyrazol-1-yl)acetamido)-2-(3,5-difluorophenyl)ethyl)pyridin-3-yl)-2-fluorobenzamide] | 21900 | 2
10 | NC(=O)c1cc(-c2cccnc2[C@H](Cc2cc(F)cc(F)c2)NC(=O)Cn2nc(C(F)(F)F)c3c2C2CC2CC3(F)F)ccc1F (stereo partly drawn) [Example 364, 5-(2-((1S)-1-(2-(4,4-difluoro-3-(trifluoromethyl)-5,5a,6,6a-tetrahydrocyclopropa[g]indazol-1(4H)-yl)acetamido)-2-(3,5-difluorophenyl)ethyl)pyridin-3-yl)-2-fluorobenzamide] | 3760 | 38
11 | O=C(Cc1c[nH]c2ccc(F)cc12)N[C@@H](Cc1cc(F)cc(F)c1)c1ncncc1-c1ccc(Cl)cc1 [Example 365, (S)—N-(1-(5-(4-chlorophenyl)pyrimidin-4-yl)-2-(3,5-difluorophenyl)ethyl)-2-(5-fluoro-1H-indol-3-yl)acetamide] | 12500 | 86
12 | NC(=O)c1cc(-c2cccnc2[C@H](Cc2cc(F)cc(F)c2)NC(=O)Cn2nc(Br)nc2C2CC2)ccc1F [Example 366, (S)-5-(2-(1-(2-(3-bromo-5-cyclopropyl-1H-1,2,4-triazol-1-yl)acetamido)-2-(3,5-difluorophenyl)ethyl)pyridin-3-yl)-2-fluorobenzamide] | > 53200 | 6
13 | Cc1cc2ccccc2n1CC(=O)N[C@@H](Cc1cc(F)cc(F)c1)c1ncccc1-c1ccc(F)c(C(N)=O)c1 [Example 367, (S)-5-(2-(2-(3,5-difluorophenyl)-1-(2-(2-methyl-1H-indol-1-yl)acetamido)ethyl)pyridin-3-yl)-2-fluorobenzamide] | 13400 | 20
14 | NC(=O)c1cc(-c2cccnc2[C@H](Cc2cc(F)cc(F)c2)NC(=O)Cn2cnc3c(Cl)nccc32)ccc1F [Example 368, (S)-5-(2-(1-(2-(4-chloro-1H-imidazo[4,5-c]pyridin-1-yl)acetamido)-2-(3,5-difluorophenyl)ethyl)pyridin-3-yl)-2-fluorobenzamide] | 47300 | 2
15 | CC1(C)CC(=O)c2c(C(F)(F)F)nn(CC(=O)N[C@@H](Cc3cc(F)cc(F)c3)c3ncccc3-c3ccc(F)c(C(N)=O)c3)c2C1 [Example 369, (S)-5-(2-(2-(3,5-difluorophenyl)-1-(2-(6,6-dimethyl-4-oxo-3-(trifluoromethyl)-4,5,6,7-tetrahydro-1H-indazol-1-yl)acetamido)ethyl)pyridin-3-yl)-2-fluorobenzamide] | > 53000 | 5
16 | NC(=O)c1cc(-c2cccnc2[C@H](Cc2cc(F)cc(F)c2)NC(=O)Cn2nc(C(F)F)c3c2C(=O)CCC3)ccc1F [Example 370, (S)-5-(2-(1-(2-(3-(difluoromethyl)-7-oxo-4,5,6,7-tetrahydro-1H-indazol-1-yl)acetamido)-2-(3,5-difluorophenyl)ethyl)pyridin-3-yl)-2-fluorobenzamide] | 22700 | 33
17 | Nc1ncc(-c2cccnc2[C@H](Cc2cc(F)cc(F)c2)NC(=O)Cn2nc(C(F)F)c3c2C(F)(F)CCC3(F)F)cc1C(F)(F)F [Example 371, (S)—N-(1-(6′-amino-5′-(trifluoromethyl)-3,3′-bipyridin-2-yl)-2-(3,5-difluorophenyl)ethyl)-2-(3-(difluoromethyl)-4,4,7,7-tetrafluoro-4,5,6,7-tetrahydro-1H-indazo-1-yl)acetamide] | 7590 | 83
18 | Cc1c(C#N)c(C(F)(F)F)nn1CC(=O)N[C@@H](Cc1cc(F)cc(F)c1)c1ncccc1-c1ccc(N(C)C)c(C(N)=O)c1 [Example 372, (S)-5-(2-(1-(2-(4-cyano-5-methyl-3-(trifluoromethyl)-1H-pyrazol-1-yl)acetamido)-2-(3,5-difluorophenyl)ethyl)pyridin-3-yl)-2-(dimethylamino)benzamide] | 24000 | 0
19 | COc1ccc2cccc(CC(=O)N[C@@H](Cc3cc(F)cc(F)c3)c3ncccc3-c3ccc(F)c(C#N)c3)c2c1 [Example 373, (S)—N-(1-(3-(3-cyano-4-fluorophenyl)pyridin-2-yl)-2-(3,5-difluorophenyl)ethyl)-2-(7-methoxynaphthalen-1-yl)acetamide] | 8140 | 0
20 | Cc1nc(C(F)(F)F)nn1CC(=O)N[C@@H](Cc1cc(F)cc(F)c1)c1ncccc1-c1ccc(F)c(C(N)=O)c1 [Example 374, (S)-5-(2-(2-(3,5-difluorophenyl)-1-(2-(5-methyl-3-(trifluoromethyl)-1H-1,2,4-triazol-1-yl)acetamido)ethyl)pyridin-3-yl)-2-fluorobenzamide] | > 53200 | 5
21 | Nc1ccc(-c2cccnc2[C@H](Cc2cc(F)cc(F)c2)NC(=O)Cn2nc(C(F)F)c3c2C(F)(F)CCC3(F)F)cn1 [Example 375, (S)—N-(1-(6′-amino-3,3′-bipyridin-2-yl)-2-(3,5-difluorophenyl)ethyl)-2-(3-(difluoromethyl)-4,4,7,7-tetrafluoro-4,5,6,7-tetrahydro-1H-indazol-1-yl)acetamide] | 15200 | 98
22 | Cc1c(C#N)c(C(F)(F)F)nn1CC(=O)N[C@@H](Cc1cc(F)cc(F)c1)c1ncccc1-c1ccc(F)c(C(N)=O)c1 [Example 376, (S)-5-(2-(1-(2-(4-cyano-5-methyl-3-(trifluoromethyl)-1H-pyrazol-1-yl)acetamido)-2-(3,5-difluorophenyl)ethyl)pyridin-3-yl)-2-fluorobenzamide] | 29100 | 2
23 | N#Cc1cc(-c2cccnc2[C@H](Cc2cc(F)cc(F)c2)NC(=O)Cc2c[nH]c3ccc(F)cc23)ccn1 [Example 377, (S)—N-(1-(2′-cyano-3,4′-bipyridin-2-yl)-2-(3,5-difluorophenyl)ethyl)-2-(5-fluoro-1H-indol-3-yl)acetamide] | 18600 | 22
24 | CC(C)(C)OC(=O)N1CCc2c(C(F)(F)F)nn(CC(=O)N[C@@H](Cc3cc(F)cc(F)c3)c3ncccc3-c3ccc(F)c(C(N)=O)c3)c2C1 [Example 378, (S)-tert-butyl 1-(2-(1-(3-(3-carbamoyl-4-fluorophenyl)pyridin-2-yl)-2-(3,5-difluorophenyl)ethylamino)-2-oxoethyl)-3-(trifluoromethyl)-4,5-dihydro-1H-pyrazolo[3,4-c]pyridine-6(7H)-carboxylate] | 17100 | 5
